In patent US6221867A, “4,5-pyrazinoxindoles” (Hoffmann-La Roche Inc., priority 1999, dated 2001):

Target: rat SAPK (isoform β) (Rattus norvegicus, UniProt P49187)
Assay: SAPK FlashPlate Assay (inhibition of cJun phosphorylation)
Assay type: biochemical
Conditions: for SAPK % Inhibition: at test concentration 0.5 μM, GST-cJun substrate, 33P-ATP
Protocol: "IC50 " refers to the concentration of a particular 4,5-pyrazinoxindole required to inhibit 50% of cJun phosphorylation, which is a measure of inhibition of SAPK activity. IC50 can be measured, inter alia, using the assay described herein in Example 7, infra.
Human JNK is highly homologous to rat SAPK. To measure the inhibitory activity of test compounds, the compounds were tested in the rat SAPK assay. For the SAPK assay, purified GST-cJun (a chimeric protein containing cJun, a natural substrate of JNK) was coated on 96 well FlashPlates (New England Nuclear, Boston, Mass.). Purified rat SAPK (isoform β, Kyriakis et al. supra) was preincubated with preparations containing MEKK-1 and MKK4 for 30 minutes at 37° C. in assay buffer containing 25 mM HEPES, pH 7.5, 150 mM NaCl, 20 mM MgCl2, 2 mM DTT, 0.001% Tween 20, 1 μM ATP freshly added. In the preincubation step, MEKK-1 phosphorylates and activates MKK-4, which in turn phosphorylates and activates SAPK. The activated SAPK was then added to the cJun coated FlashPlates along with ^33 P-ATP (0.32 μCi per reaction) and test compounds. The plates were incubated for 30 minutes at 37° C., then washed with PBS, 0.01% Tween 20, and counted in the Topcount scintillation counter (Packard Instrument Co., Downers Grove, Ill.). Dilutions of compounds were tested in duplicate in each assay. The percent inhibition of cJun phosphorylation (a measure of inhibition of SAPK activity) was determined by the following formula: [formula]
where "test compound" refers to the average counts per minute of the test duplicates, "nonspecific" refers to the average counts per minute when no SAPK was added, and "total" refers to the average counts per minute when no compound was added.

Sequence of rat SAPK (isoform β) (P49187 whole entry, canonical isoform): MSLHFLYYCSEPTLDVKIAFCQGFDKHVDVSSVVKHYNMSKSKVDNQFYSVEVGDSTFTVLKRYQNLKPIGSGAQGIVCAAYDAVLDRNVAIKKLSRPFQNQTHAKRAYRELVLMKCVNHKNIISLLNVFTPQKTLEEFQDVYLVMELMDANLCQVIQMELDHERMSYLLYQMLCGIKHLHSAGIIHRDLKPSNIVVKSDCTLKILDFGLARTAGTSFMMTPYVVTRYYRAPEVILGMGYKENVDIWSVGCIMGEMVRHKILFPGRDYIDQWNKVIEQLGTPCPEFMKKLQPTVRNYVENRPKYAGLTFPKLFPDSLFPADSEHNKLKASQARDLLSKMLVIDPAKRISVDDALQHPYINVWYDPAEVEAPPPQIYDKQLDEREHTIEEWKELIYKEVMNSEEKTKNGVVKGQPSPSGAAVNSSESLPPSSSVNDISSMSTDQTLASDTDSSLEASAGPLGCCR

| Molecule | SAPK % Inhibition [%] | inhibition at 0.1 µM (read-out: SAPK % Inhibition) [%] | further results |
| --- | --- | --- | --- |
| COc1cc[nH]c1/C=C1\C(=O)Nc2ccc3nc(-c4ccco4)c(-c4ccco4)nc3c21 [D, (Z)-7,9-Dihydro-2,3-di-(2-furanyl)-9-[(3-methoxy-1H-pyrrol-2-yl)methylene]-8H-pyrrolo[3,2-f]quinoxalin-8-one] |  |  | inhibition at 0.5 µM (read-out: SAPK % Inhibition): ≥ 50% |
| (Z)-7,9-Dihydro-9-[(3-methoxy-1H-pyrrol-2-yl)methylene]-2-methyl-3-phenyl-8H-pyrrolo[3,2-f]quinoxalin-8-one and (Z)-7,9-dihydro-9-[(3-methoxy-1H-pyrrol-2-yl)methylene]-3-methyl-2-phenyl- 8H-pyrrolo[3,2-f]quinoxalin-8-one [C] | ≥ 50 |  |  |
| COc1cc[nH]c1/C=C1\C(=O)Nc2ccc3nc4c(nc3c21)CCCC4 [E, (Z)-1,3,5,6,7,8-Hexahydro-3-[(3-methoxy-1H-pyrrol-2-yl)methylene]-2H-pyrrolo[3,2-a]phenazin-2-one] |  | ≥ 50 |  |
| Mixture of (Z)-3-butyl-7,9-dihydro-9-[(3-methoxy-1H-pyrrol-2-yl)methylene]-2-methyl-8H-pyrrolo[3,2-f]quinoxalin-8-one and (Z)-2-butyl-7,9-dihydro-9-[(3-methoxy-1H-pyrrol-2-yl)methylene]-3-methyl-8H-pyrrolo[3,2-f]quinoxalin-8-one | ≥ 50 |  |  |
| COc1cc[nH]c1/C=C1\C(=O)Nc2ccc3nc(C)c(C)nc3c21 [A, (Z)-7,9-Dihydro-2,3-dimethyl-9-[(3-methoxy-1H-pyrrol-2-yl)methylene]-8H-pyrrolo-[3,2-f]quinoxalin-8-one] |  | ≥ 50 |  |
